These results are taken from PubChem BioAssay AID367 (MTDP, 2006).

The structures appear in SMILES notation. Several values for one entry are separate records, joined by “and”; a condition that tells them apart may be missing. Equal values may be shown once. Activity calls are given as the source filed them. How the calls were made is not given here.

For the experiment, the target named is Gag-Pol polyprotein (Human immunodeficiency virus type 2 subtype A (isolate ROD)) (UniProt P04584). As to the kind of experiment: Reverse transcriptase ribonuclease H inhibitors, biochemical concentration-response (AID 367). The following applies: HIV-2 RNase H, FRET RNA/DNA substrate cleavage.
Chain of Gag-Pol polyprotein (Human immunodeficiency virus type 2 subtype A (isolate ROD)) (P04584 whole entry, looked up): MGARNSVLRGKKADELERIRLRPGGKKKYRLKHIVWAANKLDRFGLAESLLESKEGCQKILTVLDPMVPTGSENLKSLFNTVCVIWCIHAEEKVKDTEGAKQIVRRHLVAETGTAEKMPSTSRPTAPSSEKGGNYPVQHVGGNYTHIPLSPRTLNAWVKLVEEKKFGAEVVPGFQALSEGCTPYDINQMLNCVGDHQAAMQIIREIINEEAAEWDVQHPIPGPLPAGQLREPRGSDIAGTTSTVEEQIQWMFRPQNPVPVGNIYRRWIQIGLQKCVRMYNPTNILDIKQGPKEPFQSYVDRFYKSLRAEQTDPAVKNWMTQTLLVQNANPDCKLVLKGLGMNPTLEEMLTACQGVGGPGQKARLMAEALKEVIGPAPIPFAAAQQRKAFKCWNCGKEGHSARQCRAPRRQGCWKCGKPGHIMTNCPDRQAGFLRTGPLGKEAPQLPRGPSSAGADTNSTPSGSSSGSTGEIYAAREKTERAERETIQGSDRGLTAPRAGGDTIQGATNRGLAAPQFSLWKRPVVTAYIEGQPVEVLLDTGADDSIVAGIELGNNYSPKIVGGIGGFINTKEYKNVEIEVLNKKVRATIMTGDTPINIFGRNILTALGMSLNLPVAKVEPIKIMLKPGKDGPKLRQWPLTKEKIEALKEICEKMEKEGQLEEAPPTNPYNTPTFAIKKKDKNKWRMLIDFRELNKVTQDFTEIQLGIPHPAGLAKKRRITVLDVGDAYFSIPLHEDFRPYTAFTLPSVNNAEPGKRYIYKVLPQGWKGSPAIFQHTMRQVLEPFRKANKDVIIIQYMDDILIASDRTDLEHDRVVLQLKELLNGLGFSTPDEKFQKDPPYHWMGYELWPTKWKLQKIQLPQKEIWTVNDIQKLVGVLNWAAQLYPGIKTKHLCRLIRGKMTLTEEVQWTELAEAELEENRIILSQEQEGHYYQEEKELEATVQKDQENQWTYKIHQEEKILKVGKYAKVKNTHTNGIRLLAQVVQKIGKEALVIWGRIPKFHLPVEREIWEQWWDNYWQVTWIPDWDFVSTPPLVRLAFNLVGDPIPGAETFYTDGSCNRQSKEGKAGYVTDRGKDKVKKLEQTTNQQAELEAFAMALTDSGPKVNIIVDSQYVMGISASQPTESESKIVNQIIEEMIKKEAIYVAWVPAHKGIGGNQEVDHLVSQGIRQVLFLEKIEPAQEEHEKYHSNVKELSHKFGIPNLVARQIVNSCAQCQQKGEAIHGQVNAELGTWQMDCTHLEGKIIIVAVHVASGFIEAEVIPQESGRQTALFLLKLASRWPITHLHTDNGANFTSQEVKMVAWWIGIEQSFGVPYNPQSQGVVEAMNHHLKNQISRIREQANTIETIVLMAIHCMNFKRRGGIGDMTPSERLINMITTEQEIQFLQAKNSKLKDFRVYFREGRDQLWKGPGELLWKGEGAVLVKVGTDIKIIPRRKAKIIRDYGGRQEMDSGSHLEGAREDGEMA
As usually defined, the IC50 is the concentration that inhibits the measured activity by half. `O=c1oc2ccccc2c(O)c1/C=C1\C=Nc2ccccc21`: the IC50 was 5 µM.

With `N#Cc1c(NC(=O)C(F)(F)F)sc2c3c(=O)c4ccccc4c(=O)c=3oc3ccccc3c12`, the IC50 result was “inactive”.

For the compound `O=C1c2cc([N+](=O)[O-])ccc2-c2ccc3c4ccc5c6c(ccc(c7ccc1c2c73)c64)C(=O)c1cc([N+](=O)[O-])ccc1-5`, the IC50 was 4 µM.

For `COc1ccc(N2C(=O)/C(=C\c3cn(CC(=O)Nc4ccccc4)c4ccccc34)C(=O)NC2=S)cc1`, the IC50 is 2.8 µM.

Take `O=C1NC(=S)N(c2ccc(Cl)cc2)C(=O)/C1=C\C=C\c1ccccc1[N+](=O)[O-]`: the IC50 is 8 µM.

With `Cc1cc(-c2ccc(C=C3C(=O)NC(=S)NC3=O)o2)c([N+](=O)[O-])cc1C`, the IC50 was 7 µM.

On to `O=C1/C(=C/c2ccco2)C(=O)N(c2ccc(Br)cc2)C(=S)N1c1ccccc1`, for which the IC50 entry is “inactive”.

On to `COc1cc(/C=N\c2sc3c(c2C(=O)NCc2ccccc2)CCCC3)cc(Cl)c1O`, for which the IC50 is 2.8 µM.

Take `O=[N+]([O-])c1c(Cl)cccc1-c1c[nH]cc1Cl`: the IC50 was > 100 µM (inactive).

As for `O=C1NC(=S)N(c2ccc(Cl)cc2)C(=O)/C1=C/c1ccco1`, the IC50 entry is “inactive”.

In the case of `O=C(O)C1CCCCC1c1c2ccc(=O)c(O)c-2oc2c(O)c(O)ccc12` (centres undefined), the IC50 was 0.6 µM.

For the compound `O=[N+]([O-])c1ccc(S(=O)(=O)Cc2ccccc2)c2nonc12`, the IC50 is 5 µM.

Turning to `O=C(N/N=C/c1ccccc1Cl)c1cc(O)c(O)c(O)c1`, the IC50 was 0.8 µM.

Regarding `Oc1cc(O)c2c(c1)OC(c1ccc(O)c(O)c1)C(OC1(c3cc(O)c(O)c(O)c3)Oc3cc(O)cc(O)c3C(O)C1O)C2` (centres undefined), the IC50 is 1.6 µM.

For `COc1cccc2cc(C(N)=O)c(=O)oc12`, the IC50 was 4.6 µM.

With `Cc1cc(Cl)ccc1OCC(=O)Nc1sc(C)c(C)c1C(N)=O`, the IC50 entry was “inactive”.

Regarding `O=C(N/N=C/c1ccc(/C=N/NC(=O)c2ccc(O)c(O)c2)cc1)c1ccc(O)c(O)c1`, the IC50 was 3.8 µM.

On to `O=C(O)c1c(Br)c(Br)c(Br)c(Br)c1C1c2ccc(O)cc2Oc2cc(O)ccc21`, for which the IC50 is 8 µM.

For `CC1=C(CCC(=O)O)c2cc3nc(cc4[nH]c(cc5[nH]c(cc1n2)c(C)c5C(C)O)c(C)c4C(C)O)C(C)=C3CCC(=O)O` (centres undefined), the IC50 was 1.7 µM.

For the compound `O=C1NC(=S)N(c2ccc(Cl)cc2)C(=O)/C1=C/c1ccc(Br)o1`, the IC50 is 1.7 µM.

With `CCOc1ccc(NC(=O)c2c(NC(=O)c3ccccc3)sc3c2CCCCC3)cc1`, the IC50 result was “inactive”.

For the compound `Cc1sc2nc(-c3ccc([N+](=O)[O-])cc3)[nH]c(=O)c2c1C`, the IC50 is 0.64 µM.

In the case of `O=c1c(O)c(-c2cc(O)c(O)c(O)c2)oc2cc(O)cc(O)c12`, the IC50 is 3 µM.

For `CCOc1cccc(N2C(=O)/C(=C/c3cn(CC(=O)OC)c4ccccc34)C(=O)NC2=S)c1`, the IC50 is 2.8 µM.

Take `O=S(=O)(Nc1cccc(C(F)(F)F)c1)c1ccc2ccccc2c1`: the IC50 result was “inactive”.

Consider `COc1cc([C@@H]2c3cc4c(cc3C[C@H]3COC(=O)[C@@H]32)OCO4)cc(OC)c1O`, for which the IC50 result was “inactive”.

In the case of `CC1=C(C)CC(C(=O)Nc2ccc(N3C(=O)c4ccccc4C3=O)cc2)C(C(=O)O)C1` (centres undefined), the IC50 is > 100 µM (inactive).

With `CC(C)c1ccc(O)c(O)c(=O)c1` (tested in a mixture with another compound), the IC50 was 0.8 µM.

In the case of `CN(C)CS/C(N)=N/C(O)C(Cl)(Cl)Cl` (centres undefined), the IC50 is 6 µM.

In the case of `CCCCCCCCCCCCCCCCCCOCC(O)CO` (centres undefined), the IC50 was > 100 µM (inactive).

On to `O=C(NC(=S)Nc1cc(-c2nc3ccccc3s2)ccc1Cl)c1ccc(F)cc1`, for which the IC50 is 9.1 µM.

Regarding `Cc1cc(C(=O)O)ccc1-n1c(C)ccc1C`, the IC50 entry is “inactive”.

Consider `COC(=O)c1cc2cc3cc4cc(CC(=O)O)c(C(=O)/C=C(\O)c5ccccc5O)c(OC)c4c(OC)c3c(O)c2c(=O)o1`, for which the IC50 is 8.6 µM.

In the case of `C=C(CCC(C(=O)O)C1CCC2(C)C3=C(CCC12C)C1(C)CCC(O)C(C)(C)C1CC3)C(C)C` (centres undefined), the IC50 result was “inactive”.

On to `O=C(Oc1ccccc1)Oc1c(Cl)cc2oc(=O)sc2c1Cl`, for which the IC50 is 6.3 µM.

With `C=C1C(=O)O[C@@H]2/C=C(\C)CC/C=C(\C(=O)O)CC/C=C(\C)CC[C@H]12`, the IC50 was 5.5 µM.

With `CCCc1cc(=O)oc2c3c(c4c(c12)OC(C)(C)C=C4)O[C@@H](C)[C@H](C)[C@@H]3F`, the IC50 result is “inactive”.

For `O=C1C=C/C(=N\S(=O)(=O)c2cc(Cl)ccc2Cl)C=C1Cl`, the IC50 was 2 µM.

`O=C1C(Cl)=C/C(=N\S(=O)(=O)c2ccc(Cl)cc2)C(Cl)=C1Cl`: the IC50 is 1 µM.

With `Cc1ccc(N2C(=O)/C(=C/c3ccc(O)c(O)c3)SC2=S)cc1C`, the IC50 was 4 µM.

Turning to `Cc1ccc(C=C2C(=O)NC(=S)N(c3ccccc3Cl)C2=O)o1`, the IC50 entry is “inactive”.

As to `Cc1sc(NC(=O)c2ccc(Br)o2)c(C(N)=O)c1C`, the IC50 was 7 µM.

Consider `NC(=O)c1c(N)sc2c1CCCCC2`, for which the IC50 was 2.5 µM.

Take `CC1=NN(c2ccc(S(N)(=O)=O)cc2)C(=O)/C1=C/c1ccc(-c2ccc(Cl)cc2Cl)o1`: the IC50 was 3.6 µM.

Turning to `Cc1ccc(C)n1-c1ccc(SCC(=O)O)cc1`, the concentration for half-maximal inhibition (IC50) was 2 µM.

Take `C=CCn1c(N)c(-c2nc3ccccc3[nH]2)sc1=S`: the IC50 was 3.9 µM.

Take `CC(C)=CCC[C@]1(C)[C@@H](CC=C(C)C)C[C@@]2(CC=C(C)C)C(=O)/C(=C(\O)c3ccc(O)c(O)c3)C(=O)[C@]1(CC=C(C)C)C2=O`: the IC50 is 4.8 µM.

Regarding `Cc1cccc(NCC(=O)N/N=C\c2c(Br)cc(Br)c(O)c2Br)c1`, the IC50 entry was “inactive”.

On to `Oc1c(Br)cc(/C=N/Nc2nnc3c(n2)[nH]c2ccccc23)c(Br)c1O`, for which the IC50 was 2.3 µM.

Regarding `COc1cc(-c2[o+]c3cc(O)cc(O)c3cc2O)cc(O)c1O`, the IC50 was 4.1 µM and 3.1 µM.

In the case of `Cc1onc(-c2ccccc2)c1C(=O)Nc1sc(C)c(C)c1C(N)=O`, the IC50 result was “inactive”.

On to `O=C(Nc1ccc(N2CCN(C(=O)c3ccccc3)CC2)cc1)c1ccc(-c2ccccc2)cc1`, for which the IC50 is 2.6 µM.

With `Cc1cc(O)c2c(c1O)C(=O)C13C(=C2O)C(=O)C2C(O)C1C1C(O)C3C(=O)C3=C(O)c4c(O)cc(C)c(O)c4C(=O)C321` (centres undefined), the IC50 was 8.2 µM.

Regarding `O=C1/C(=C/c2ccc(O)c(O)c2)SC(=S)N1c1ccc(O)cc1`, the IC50 was 2.6 µM.

As to `COc1ccc2c(c1)N(C(=O)CN1C(=O)c3ccccc3C1=O)C(C)(C)c1ssc(=S)c1-2`, the IC50 is 3.7 µM.

On to `O=C1NC(=S)N(c2ccccc2F)C(=O)/C1=C/c1ccc(OCc2cccc(C(=O)O)c2)cc1`, for which the IC50 was 9 µM.

`Cc1ccc(-c2c(C#N)c(SCC(=O)c3ccc(O)c(O)c3)nc3c2CCCC3)o1`: the IC50 was 1.5 µM.

Regarding `O=c1[nH]c2[nH]c(=S)[nH]c(=S)c2[nH]1`, the IC50 was 4 µM.

Take `CCC(=O)Nc1sc2c(c1C(=O)Nc1ccc(OC)cc1)CCCCC2`: the IC50 entry is “inactive”.

With `Cc1c(O)c(Br)c(C)c(O)c1Br` (tested in a mixture with another compound), the IC50 is 0.7 µM.

As to `COc1ccccc1N=C(NOCc1ccc(Cl)cc1Cl)c1nonc1N`, the IC50 entry is “inactive”.

`Cc1cc(I)c2c(c1)C1C=CCC1C(C(=O)O)N2` (centres undefined): the IC50 is > 100 µM (inactive).

As to `CCOc1ccc(N2C(=O)/C(=C/c3ccc(I)o3)C(=O)NC2=S)cc1`, the half-inhibitory concentration (IC50) was 2 µM.

On to `CC(C)c1ccc(O)c(O)c(=O)c1`, for which the IC50 is 1 µM.

In the case of `C[C@@H]1[C@H](O)c2c(c3c(c4c(-c5ccccc5)cc(=O)oc24)OC(C)(C)C=C3)O[C@@H]1C`, the IC50 result is “inactive”.

In the case of `C=C(C)[C@@H]1CCc2c(O)c(O)c(=O)cc(C)c2C1`, the IC50 was 1.7 µM.

Consider `COc1ccccc1NC(=O)c1c(NC(=O)Cc2ccccc2)sc2c1CCCCC2`, for which the IC50 is 8.5 µM.

As to `Cc1ccc(C)n1-c1ccc(O)c(C(=O)O)c1`, the IC50 was 1.6 µM.

Consider `S=C(Nc1ccc2c(c1)Cc1ccccc1-2)Nc1ccc2c(c1)Cc1ccccc1-2`, for which the IC50 entry was “inactive”.

Regarding `O=C(Cc1ccccc1Cl)c1ccc(O)c(O)c1O`, the IC50 is 2 µM.

Consider `Cc1ccccc1-n1c(O)c(C=C2C=CC=N2)c(=O)[nH]c1=S`, for which the IC50 entry was “inactive”.

In the case of `CC(C)=CCc1ccc(O)c(=O)cc1C(C)C`, the IC50 is > 100 µM (inactive).

In the case of `Cc1ccc(C)n1-c1ccc(Br)cc1C(=O)O`, the IC50 result was “inactive”.

For the compound `CC(=O)C1=C(O)[C@@]2(O)C(=O)c3c(c(C)c4ccc(C)c(O)c4c3O)C[C@H]2[C@@H](N)C1=O`, the IC50 was 4.4 µM.

As to `Cc1ccc(C2COc3cc(O)c(O)cc3C2)cc1` (centres undefined), the IC50 was 0.6 µM.

In the case of `Cc1ccc(-c2n[nH]c(=S)n2/N=C/c2ccc(O)c(O)c2O)cc1`, the IC50 was 3.8 µM.

Turning to `C=CC1=C(C)C2=NC1=CC1=NC(=CC3=C(C)C4=C(O)C(C(=O)OC)C(=C5NC(=C2)C(C)C5CCC(=O)OC/C=C(\C)CCCC(C)CCCC(C)CCCC(C)C)C4=N3)C(CC)=C1C` (centres undefined), the IC50 was > 100 µM (inactive).

On to `CCOc1ccc(N2C(=O)/C(=C/c3ccc(Br)o3)C(=O)NC2=S)cc1`, for which the IC50 was 0.9 µM.

`CC1=c2c(oc3cc(O)c(Nc4c(C)cc(O)cc4O)c(C)c23)=CC(=O)C1=Nc1c(C)cc(O)cc1O`: the IC50 was 2 µM.

Consider `NCC[Se][Se]CCN`, for which the IC50 is 2 µM.

In the case of `O=C(CSc1nc2ccccc2s1)c1sc2sc3ccccc3[n+]2c1[O-]`, the IC50 is 1.9 µM.

In the case of `O=c1c(O)cccc2cc(O)c(O)c(O)c12`, the IC50 was 1.3 µM.

On to `CC(C)OC(=O)c1cc(O)c(O)c(O)c1`, for which the IC50 is 8 µM.

Consider `O=[N+]([O-])c1cc(Cc2cc([N+](=O)[O-])c3cccnc3c2O)c(O)c2ncccc12`, for which the IC50 was 2.8 µM.

Regarding `Cc1ccc(S(=O)(=O)N=C2C=CC(=O)C=C2)c(C)c1`, the IC50 is 4.3 µM.

For the compound `O=C1NC(=S)N(c2cccc(Cl)c2)C(=O)/C1=C\C=C\c1ccco1`, the IC50 was 7 µM.

As for `C[C@H]1[C@H](O)c2c(c3c(c4c(-c5ccccc5)cc(=O)oc24)OC(C)(C)C=C3)O[C@@H]1C`, the IC50 entry was “inactive”.

On to `COc1ccc2oc(=O)c(-c3csc(Nc4ccc(Br)cc4)n3)cc2c1`, for which the IC50 was 9.8 µM.

Regarding `CCOc1ccc(C2=CC(=O)C=CC2=O)cc1`, the IC50 was 0.7 µM.
